Several values for one entry are separate records, joined by “and”; a condition that tells them apart may be missing. Equal values may be shown once. Read-outs that look alike come from different tables or passages of the source. Marks after values point to notes of the source that are not given here.
Tests used:
[1] = DPPH radical scavenging assay; format: biochemical; settings: methanol, DPPH 20 µM, 30 min; mean ± SE
Method: When reduced, the solution decolorizes in proportion to the strength and concentration of the antiradical compound tested. The results of this test are usually expressed as the concentration of the compound that reduces 50% of the radical (IC50, Table 1). […] However, no clear relationship between the carboxylic chain length and DPPH radical scavenging activity could be established. Antiradical activity was evaluated spectrophotometrically as the ability of the substances to reduce the DPPH radical as described previously with minor modifications.

[2] = Folin–Ciocalteau reduction (FCR) assay, reducing capacity; format: biochemical; settings: gallic acid equivalents, mean ± SE
Method: Folin-Ciocalteu assay, commonly known as the total phenols assay, determines a sample reducing capacity. FCR contains heteropolyphosphotunstate-molybdates, which are reduced in aqueous milieu at pH ≈ 10 to blue species, presumably (PMoW11O40)^4- [29]. […] This is probably related to high hydrophobicity of these derivatives. Reducing capacity was evaluated using Folin-Ciocalteau reagent with minor modifications as described previously.

[3] = Partition coefficient (log P) in octan-1-ol/phosphate buffer pH 7.4; settings: for logP: octan-1-ol / 6.6 mM phosphate buffer pH 7.4, pH 7.4; for Partition Coefficient: octan-1-ol/6.6 mM phosphate buffer pH 7.4, 25 °C, mean ± SD, triplicate
Method: The hydrophobicity of the prepared compounds was determined by the measurement of partition coefficient P in a mixture of two immiscible phases—octan-1-ol and 6.6 mM phosphate buffer pH 7.4 to simulate physiological conditions. Before the use, octan-1-ol was stirred with the buffer for 16 h at 25 °C to achieve saturation of both phases, which were then separated.
Then, 150 µL of the stock solutions were mixed with 150 µL of the respective immiscible phase in microcentrifuge tubes (1.5 mL) and stirred (750 rpm) for 2 h at 25 °C in triplicates. Phases were separated and the solute concentration in each phase was determined in 96-well microtitration plates using Sunrise™ spectrophotometer (Schoeller Instruments, Prague, Czech Republic) at 400 nm. Log P was calculated as follows: log Poct/buffer = log([A]octan-1-ol/[A]buffer).

[4] = tested on: rat liver microsomal membranes; assay: Inhibition of microsomal lipid peroxidation induced by tert-butyl hydroperoxide (TBARS); format: biochemical; settings: for IC50: male rat liver microsomes, tert-butylhydroperoxide 1 mM, 37 °C, 30 min, TBARS, mean ± SE, read-out: Lpx (IC50; µM)
Excerpt: Lipid peroxidation is a type of oxidative degradation of lipids caused by free radicals in cell membranes, resulting in cell damage. The most notable initiators of this chain reaction in living cells are reactive oxygen species (ROS), such as OH· and HO2·, which combine with a hydrogen atom to make water and a fatty acid radical. We used tert-butyl hydroperoxide, a relatively stable organic peroxide, as initiator of peroxidation of rat liver microsomal membranes. The inhibition of this reaction depends not only on the free radical scavenging capacity, but also on the capacity of these compounds to interact with and penetrate lipid bilayers. Isoquercitrin derivatives differed considerably in their capacity to inhibit the peroxidation of microsomal membranes. […] A similar trend, e.g., improving the activity in medium chain derivatives with subsequent drop for longer chain esters, was reported for anti-proliferative activity of IQ monocarboxylic acid esters on the growth of tumoral Caco2 cells, and also for the inhibition of tyrosinase activity.
Pooled microsomes from male rat livers (M9066, Sigma-Aldrich, Prague, Czech Republic) were washed five times using centrifugation and phosphate-buffered saline (PBS, 13,500 rpm, 5 min, 4 °C) to remove sucrose. In addition, 400 µL of the diluted microsomal suspension (0.625 mg protein/mL in PBS), the compounds tested in 50 µL of dimethyl sulfoxide (DMSO, final concentration 5–2000 µM) and 50 µL of tert-butylhydroperoxide in PBS (final concentration 1 mM) were mixed and incubated at 37 °C for 30 min. Determination of lipid peroxidation products as thiobarbituric acid reactive substances (TBARS) and calculation of the IC50 values were performed as described previously.

[5] = ABTS radical cation scavenging (Antioxidant Assay Kit); format: biochemical; settings: Trolox equivalents; aqueous buffer pH 5; mean ± SE
Method: Determination of ABTS scavenging activity involves an electron-transfer reaction. […] The capacity to scavenge the radical cation (ABTS^·) was evaluated using the Antioxidant Assay Kit (CS0790, Sigma-Aldrich, Prague, Czech Republic) and expressed as Trolox equivalents (TE) from the Trolox calibration curve.

| Molecule | IC50 [1] | logP [3] | Partition Coefficient [3] | IC50 [4] | fold more active than IQ in inhibition of microsomal lipid peroxidation ([4]; ratio of Lpx IC50 values relative to IQ (1)) | FCR (GAE) [2] | ABTS (TE) [5] | log P ([3]; pH 7.4) | FCR (GAE) ([2]; listed as quercetin) | IC50 ([4]; listed as quercetin) |
| --- | --- | --- | --- | --- | --- | --- | --- | --- | --- | --- |
| CC(=O)OC[C@H]1O[C@@H](Oc2c(-c3ccc(O)c(O)c3)oc3cc(O)cc(O)c3c2=O)[C@H](O)[C@@H](O)[C@@H]1O [Compound 2, ((2R,3S,4S,5R,6S)-6-((2-(3,4-Dihydroxyphenyl)-5,7-dihydroxy-4-oxo-4H-chromen-3-yl)oxy)-3,4,5-trihydroxytetrahydro-2H-pyran-2-yl)methyl acetate] | 2.51 ± 0.1 µM | 1.14 | 13.76 ± 0.01 | 42 ± 2.1 µM | 23 × | 1.63 ± 0.07 ^b GAE | 2.04 ± 0.07 ^i TE |  |  |  |
| CCCC(=O)OC[C@H]1O[C@@H](Oc2c(-c3ccc(O)c(O)c3)oc3cc(O)cc(O)c3c2=O)[C@H](O)[C@@H](O)[C@@H]1O [Compound 4, ((2R,3S,4S,5R,6S)-6-((2-(3,4-Dihydroxyphenyl)-5,7-dihydroxy-4-oxo-4H-chromen-3-yl)oxy)-3,4,5-trihydroxytetrahydro-2H-pyran-2-yl)methyl butyrate] | 2.51 ± 0.17 µM | 1.96 | 90.64 ± 0.03 | 24.1 ± 0.8 µM |  | 1.72 ± 0.03 ^a GAE | 2.16 ± 0.08 ^i TE |  |  |  |
| O=c1c(O)c(-c2ccc(O)c(O)c2)oc2cc(O)cc(O)c12 [Quercetin, quercetin, reference compound] |  |  | 86.27 ± 0.02 |  |  |  |  |  |  |  |
| C[C@@H]1O[C@@H](OC[C@H]2O[C@@H](Oc3c(-c4ccc(O)c(O)c4)oc4cc(O)cc(O)c4c3=O)[C@H](O)[C@@H](O)[C@@H]2O)[C@H](O)[C@H](O)[C@H]1O [Rutin, quercetin-3-O-[α-L-rhamnopyranosyl-(1→6)-β-D-glucopyranose], reference compound] | 3.66 ± 0.39 µM |  | 0.41 ± 0.01 | 202 ± 8 µM |  | 2.19 ± 0.10 GAE | 1.79 ± 0.09 TE |  |  |  |
| ((2R,3S,4R,5R,6S)-3-Acetoxy-6-((2-(3,4-dihydroxyphenyl)-5,7-dihydroxy-4-oxo-4H-chromen-3-yl)oxy)-4,5-dihydroxytetrahydro-2H-pyran-2-yl)methyl acetate [Compound 3] | 2.15 ± 0.04 µM |  |  | 433 ± 19 µM |  | 1.67 ± 0.11 ^b GAE | 1.56 ± 0.04 TE | 1.59 |  |  |
| quercetin [reference compound] | 3.78 ± 0.15 µM |  |  | 29.8 ± 0.6 µM |  | 2.80 ± 0.16 GAE | 2.14 ± 0.10 ^i TE |  | 2.80 GAE | 30 µM |

Second part, led by results:

| IC50 [1] | logP [3] | Partition Coefficient [3] | IC50 [4] | fold more active than IQ in inhibition of microsomal lipid peroxidation ([4]; ratio of Lpx IC50 values relative to IQ (1)) | Molecule | FCR (GAE) [2] | ABTS (TE) [5] | log P ([3]; pH 7.4) | FCR (GAE) ([2]; listed as quercetin) | IC50 ([4]; listed as quercetin) |
| --- | --- | --- | --- | --- | --- | --- | --- | --- | --- | --- |
| 3.07 ± 0.1 µM | 2.1 | 126.43 ± 0.01 | 20 µM and 19.7 µM |  | CCCCCC(=O)OC[C@H]1O[C@@H](Oc2c(-c3ccc(O)c(O)c3)oc3cc(O)cc(O)c3c2=O)[C@H](O)[C@@H](O)[C@@H]1O [Compound 5, ((2R,3S,4S,5R,6S)-6-((2-(3,4-Dihydroxyphenyl)-5,7-dihydroxy-4-oxo-4H-chromen-3-yl)oxy)-3,4,5-trihydroxytetrahydro-2H-pyran-2-yl)methyl hexanoate] | 1.48 ± 0.05 ^b GAE | 2.11 ± 0.09 ^i TE |  |  |  |
| 2.23 ± 0.08 µM |  |  | 186 ± 3 µM |  | CCCCCCCC(=O)OC[C@H]1O[C@@H](Oc2c(-c3ccc(O)c(O)c3)oc3cc(O)cc(O)c3c2=O)[C@H](O)[C@@H](O)[C@@H]1O [Compound 6, ((2R,3S,4S,5R,6S)-6-((2-(3,4-Dihydroxyphenyl)-5,7-dihydroxy-4-oxo-4H-chromen-3-yl)oxy)-3,4,5-trihydroxytetrahydro-2H-pyran-2-yl)methyl octanoate] | 1.47 ± 0.10 ^b GAE | 1.28 ± 0.07 TE |  |  |  |
| 1.58 ± 0.05 µM |  |  | 432 ± 24 µM |  | CCCCCCCCCCCC(=O)OC[C@H]1O[C@@H](Oc2c(-c3ccc(O)c(O)c3)oc3cc(O)cc(O)c3c2=O)[C@H](O)[C@@H](O)[C@@H]1O [Compound 7, ((2R,3S,4S,5R,6S)-6-((2-(3,4-Dihydroxyphenyl)-5,7-dihydroxy-4-oxo-4H-chromen-3-yl)oxy)-3,4,5-trihydroxytetrahydro-2H-pyran-2-yl)methyl dodecanoate] | 0.63 GAE and 0.63 ± 0.07 ^c GAE | 1.06 ± 0.09 ^j TE |  |  |  |
| 2.23 ± 0.03 µM |  |  | 1090 ± 36 µM |  | CCCCCCCCCCCCCCCC(=O)OC[C@H]1O[C@@H](Oc2c(-c3ccc(O)c(O)c3)oc3cc(O)cc(O)c3c2=O)[C@H](O)[C@@H](O)[C@@H]1O [Compound 8, ((2R,3S,4S,5R,6S)-6-((2-(3,4-Dihydroxyphenyl)-5,7-dihydroxy-4-oxo-4H-chromen-3-yl)oxy)-3,4,5-trihydroxytetrahydro-2H-pyran-2-yl)methyl palmitate] | 0.76 GAE and 0.76 ± 0.03 ^c GAE | 1.0 TE and 1.00 ± 0.06 ^j TE |  |  |  |
| 1.77 ± 0.06 µM | -1.15 | 0.07 ± 0.01 | 1340 ± 54 µM |  | O=C(O)CCCC(=O)OC[C@H]1O[C@@H](Oc2c(-c3ccc(O)c(O)c3)oc3cc(O)cc(O)c3c2=O)[C@H](O)[C@@H](O)[C@@H]1O [Compound 9, 6-(((2R,3S,4S,5R,6S)-6-((2-(3,4-Dihydroxyphenyl)-5,7-dihydroxy-4-oxo-4H-chromen-3-yl)oxy)-3,4,5-trihydroxytetrahydro-2H-pyran-2-yl)methoxy)-6-oxopentanoic acid] | 1.84 ± 0.05 ^a GAE | 2.13 ± 0.08 ^i TE |  |  |  |
| 2.19 ± 0.12 µM | -1 | 0.10 ± 0.01 | 250 ± 19 µM |  | O=C(O)CCCCC(=O)OC[C@H]1O[C@@H](Oc2c(-c3ccc(O)c(O)c3)oc3cc(O)cc(O)c3c2=O)[C@H](O)[C@@H](O)[C@@H]1O [Compound 10, 6-(((2R,3S,4S,5R,6S)-6-((2-(3,4-Dihydroxyphenyl)-5,7-dihydroxy-4-oxo-4H-chromen-3-yl)oxy)-3,4,5-trihydroxytetrahydro-2H-pyran-2-yl)methoxy)-6-oxohexanoic acid] | 1.46 ± 0.14 ^b GAE | 2.12 ± 0.10 ^i TE |  |  |  |
| 2.97 ± 0.22 µM | 0.48 | 3.00 ± 0.03 | 33 µM and 32.5 µM |  | O=C(O)CCCCCCCCCCC(=O)OC[C@H]1O[C@@H](Oc2c(-c3ccc(O)c(O)c3)oc3cc(O)cc(O)c3c2=O)[C@H](O)[C@@H](O)[C@@H]1O [Compound 11, 12-(((2R,3S,4S,5R,6S)-6-((2-(3,4-Dihydroxyphenyl)-5,7-dihydroxy-4-oxo-4H-chromen-3-yl)oxy)-3,4,5-trihydroxytetrahydro-2H-pyran-2-yl)methoxy)-12-oxododecanoic acid] | 1.58 GAE and 1.58 ± 0.05 ^b GAE | 2.16 ± 0.08 ^i TE |  |  |  |

From publication PMC4926433, “Isoquercitrin Esters with Mono- or Dicarboxylic Acids: Enzymatic Preparation and Properties” (International Journal of Molecular Sciences, 2016)
